ChEMBL document CHEMBL5385860, “Antiproliferative, antiangiogenic and apoptotic effect of new hybrids of quinazoline-4(3H)-ones and sulfachloropyridazine” (Eur J Med Chem, 2023)

How the values were obtained:
[1] = tested on: MDA-MB-468; test: Cytotoxicity against human MDA-MB-468 cells assessed as growth inhibition at 10 uM relative to control; format: functional; conditions: read-out: GI
[2] = tested on: Hs-578T; test: Cytotoxicity against human Hs-578T cells assessed as growth inhibition at 10 uM relative to control; format: functional; conditions: read-out: GI
[3] = tested on: UACC-62; test: Cytotoxicity against human UACC-62 cells assessed as growth inhibition at 10 uM relative to control; format: functional; conditions: read-out: GI
[4] = tested on: A498; test: Cytotoxicity against human A498 cells assessed as growth inhibition at 10 uM relative to control; format: functional; conditions: read-out: GI
[5] = tested on: SNB-75; test: Cytotoxicity against human SNB-75 cells assessed as growth inhibition at 10 uM relative to control; format: functional; conditions: read-out: GI
[6] = tested on: NCI-H522; test: Cytotoxicity against human NCI-H522 cells assessed as growth inhibition at 10 uM relative to control; format: functional; conditions: read-out: GI
[7] = tested on: HOP-92; test: Cytotoxicity against human HOP-92 cells assessed as growth inhibition at 10 uM relative to control; format: functional; conditions: read-out: GI
[8] = tested on: NCI-H322M; test: Cytotoxicity against human NCI-H322M cells assessed as growth inhibition at 10 uM relative to control; format: functional; conditions: read-out: GI
[9] = tested on: NCI-H226; test: Cytotoxicity against human NCI-H226 cells assessed as growth inhibition at 10 uM relative to control; format: functional; conditions: read-out: GI
[10] = tested on: HOP-62; test: Cytotoxicity against human HOP-62 cells assessed as growth inhibition at 10 uM relative to control; format: functional; conditions: read-out: GI
[11] = tested on: MDA-MB-231; test: Cytotoxicity against human MDA-MB-231 cells assessed as growth inhibition at 10 uM relative to control; format: functional; conditions: read-out: GI
[12] = tested on: SK-OV-3; test: Cytotoxicity against human SK-OV-3 cells assessed as growth inhibition at 10 uM relative to control; format: functional; conditions: read-out: GI
[13] = tested on: IGROV-1; test: Cytotoxicity against human IGROV-1 cells assessed as growth inhibition at 10 uM relative to control; format: functional; conditions: read-out: GI
[14] = tested on: EKVX; test: Cytotoxicity against human EKVX cells assessed as growth inhibition at 10 uM relative to control; format: functional; conditions: read-out: GI
[15] = tested on: BT-549; test: Cytotoxicity against human BT-549 cells assessed as growth inhibition at 10 uM relative to control; format: functional; conditions: read-out: GI
[16] = tested on: UO-31; test: Cytotoxicity against human UO-31 cells assessed as growth inhibition at 10 uM relative to control; format: functional; conditions: read-out: GI
[17] = tested on: CAKI-1; test: Cytotoxicity against human CAKI-1 cells assessed as growth inhibition at 10 uM relative to control; format: functional; conditions: read-out: GI
[18] = tested on: U-251; test: Cytotoxicity against human U-251 cells assessed as growth inhibition at 10 uM relative to control; format: functional; conditions: read-out: GI
[19] = tested on: UO-31; test: cells; conditions: Homo sapiens, UO-31, 24 h
[20] = tested on: MCF7; test: Cytotoxicity against human MCF7 cells assessed as growth inhibition at 10 uM relative to control; format: functional; conditions: read-out: GI
[21] = tested on: LOX IMVI; test: Cytotoxicity against human LOX IMVI cells assessed as growth inhibition at 10 uM relative to control; format: functional; conditions: read-out: GI
[22] = tested on: SR; test: Cytotoxicity against human SR cells assessed as growth inhibition at 10 uM relative to control; format: functional; conditions: read-out: GI
[23] = tested on: SF-539; test: Cytotoxicity against human SF-539 cells assessed as growth inhibition at 10 uM relative to control; format: functional; conditions: read-out: GI
[24] = tested on: SW-620; test: Cytotoxicity against human SW-620 cells assessed as growth inhibition at 10 uM relative to control; format: functional; conditions: read-out: GI
[25] = tested on: T47D; test: Cytotoxicity against human T47D cells assessed as growth inhibition at 10 uM relative to control; format: functional; conditions: read-out: GI
[26] = tested on: M14; test: Cytotoxicity against human M14 cells assessed as growth inhibition at 10 uM relative to control; format: functional; conditions: read-out: GI
[27] = tested on: ACHN; test: Cytotoxicity against human ACHN cells assessed as growth inhibition at 10 uM relative to control; format: functional; conditions: read-out: GI
[28] = tested on: 786-0; test: Cytotoxicity against human 786-0 cells assessed as growth inhibition at 10 uM relative to control; format: functional; conditions: read-out: GI
[29] = tested on: HCT-116; test: Cytotoxicity against human HCT-116 cells assessed as growth inhibition at 10 uM relative to control; format: functional; conditions: read-out: GI
[30] = tested on: M14; test: cells; conditions: Homo sapiens, M14, 24 h
[31] = tested on: HCT-116; test: cells; conditions: Homo sapiens, HCT-116, 24 h

O=C(CSc1nc2ccccc2c(=O)n1-c1ccc(S(=O)(=O)Nc2ccc(Cl)nn2)cc1)NC1CCCCC1
inhibition of growth at 10 µM [1]: 10%
inhibition of growth at 10 µM [2]: 10%
inhibition of growth at 10 µM [3]: 10%
inhibition of growth at 10 µM [4]: 11%
inhibition of growth at 10 µM [5]: 16%
inhibition of growth at 10 µM [6]: 11%
inhibition of growth at 10 µM [7]: 11%

CCCCn1c(SCC(=O)Nc2ccc(S(=O)(=O)Nc3ccc(Cl)nn3)cc2)nc2ccccc2c1=O
inhibition of growth at 10 µM [8]: 12%
inhibition of growth at 10 µM [9]: 10%
inhibition of growth at 10 µM [10]: 14%
inhibition of growth at 10 µM [11]: 10%
inhibition of growth at 10 µM [12]: 16%
inhibition of growth at 10 µM [13]: 15%
inhibition of growth at 10 µM [3]: 14%
inhibition of growth at 10 µM [14]: 11%
inhibition of growth at 10 µM [15]: 14%
inhibition of growth at 10 µM [16]: 29%
inhibition of growth at 10 µM [17]: 18%
inhibition of growth at 10 µM [18]: 10%
inhibition of growth at 10 µM [5]: 23%
inhibition of growth at 10 µM [6]: 13%
inhibition of growth at 10 µM [7]: 32%
IC50 [19]: 14.7 µM

O=c1c2cc3ccccc3cc2[nH]c(=S)n1-c1ccc(S(=O)(=O)Nc2ccc(Cl)nn2)cc1
inhibition of growth at 10 µM [20]: 11%
inhibition of growth at 10 µM [16]: 18%
inhibition of growth at 10 µM [17]: 10%
inhibition of growth at 10 µM [21]: 12%
inhibition of growth at 10 µM [6]: 10%

O=c1c2cccc(Br)c2[nH]c(=S)n1-c1ccc(S(=O)(=O)Nc2ccc(Cl)nn2)cc1
inhibition of growth at 10 µM [16]: 20%
inhibition of growth at 10 µM [17]: 13%
inhibition of growth at 10 µM [5]: 11%
inhibition of growth at 10 µM [6]: 12%

CCn1c(SCC(=O)Nc2ccc(S(=O)(=O)Nc3ccc(Cl)nn3)cc2)nc2ccccc2c1=O
inhibition of growth at 10 µM [22]: 12%
inhibition of growth at 10 µM [16]: 12%
inhibition of growth at 10 µM [4]: 10%

O=C(CSc1nc2ccccc2c(=O)n1-c1ccc(Cl)c(Cl)c1)Nc1ccc(S(=O)(=O)Nc2ccc(Cl)nn2)cc1
inhibition of growth at 10 µM [23]: 10%
inhibition of growth at 10 µM [24]: 10%
inhibition of growth at 10 µM [10]: 12%
inhibition of growth at 10 µM [25]: 14%
inhibition of growth at 10 µM [12]: 11%
inhibition of growth at 10 µM [3]: 15%
inhibition of growth at 10 µM [16]: 20%
inhibition of growth at 10 µM [17]: 18%
inhibition of growth at 10 µM [26]: 14%
inhibition of growth at 10 µM [5]: 31%
inhibition of growth at 10 µM [6]: 10%
inhibition of growth at 10 µM [7]: 28%

O=C(CSc1nc2ccccc2c(=O)n1Cc1ccccc1)Nc1ccc(S(=O)(=O)Nc2ccc(Cl)nn2)cc1
inhibition of growth at 10 µM [27]: 10%
inhibition of growth at 10 µM [9]: 12%
inhibition of growth at 10 µM [10]: 11%
inhibition of growth at 10 µM [11]: 13%
inhibition of growth at 10 µM [22]: 10%
inhibition of growth at 10 µM [20]: 13%
inhibition of growth at 10 µM [16]: 21%
inhibition of growth at 10 µM [17]: 13%

O=c1c2cc(Cl)cc(Cl)c2[nH]c(=S)n1-c1ccc(S(=O)(=O)Nc2ccc(Cl)nn2)cc1
inhibition of growth at 10 µM [16]: 19%
inhibition of growth at 10 µM [17]: 11%
inhibition of growth at 10 µM [4]: 12%
inhibition of growth at 10 µM [28]: 21%
inhibition of growth at 10 µM [26]: 78%
inhibition of growth at 10 µM [29]: 48%
inhibition of growth at 10 µM [6]: 10%
IC50 [30]: 40.9 µM
IC50 [31]: 20 µM

CCCCNC(=O)CSc1nc2ccccc2c(=O)n1-c1ccc(S(=O)(=O)Nc2ccc(Cl)nn2)cc1
inhibition of growth at 10 µM [16]: 12%
inhibition of growth at 10 µM [4]: 25%

Cc1ccc2[nH]c(=S)n(-c3ccc(S(=O)(=O)Nc4ccc(Cl)nn4)cc3)c(=O)c2c1
inhibition of growth at 10 µM [15]: 17%
inhibition of growth at 10 µM [16]: 15%
inhibition of growth at 10 µM [17]: 10%
inhibition of growth at 10 µM [28]: 39%
inhibition of growth at 10 µM [26]: 100%
inhibition of growth at 10 µM [29]: 60%
IC50 [30]: 12.8 µM
IC50 [31]: 28 µM

CNC(=O)CSc1nc2ccccc2c(=O)n1-c1ccc(S(=O)(=O)Nc2ccc(Cl)nn2)cc1
inhibition of growth at 10 µM [21]: 24%
